Data published in patent US9695155B2, “Herbicidal substituted pyrimidinyloxy benzene compounds” (E. I. DU PONT DE NEMOURS AND COMPANY, priority 2013, dated 2017).

What was measured:
chamomile = experiment: Test D postemergence; assay type: in vivo, Matricaria inodora; details: Tripleurospermum inodorum, post-emergence
In short: (§1)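 Visual rating vs untreated controls, 0 = no effect, 100 = complete control, taken 7–21 d after treatment. Pre: silt loam soil. Post: potting medium, plants 2–18 cm, 1–4 leaf. Formulation: non-phytotoxic solvent mix + surfactant.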

Italian ryegrass [1] = experiment: Test D postemergence; assay type: in vivo, Lolium multiflorum; details: Lolium multiflorum, post-emergence
In short: as §1

canarygrass = experiment: Test D postemergence; assay type: in vivo, Phalaris minor; details: Phalaris minor, post-emergence
In short: as §1

Italian ryegrass [2] = experiment: Test D preemergence; assay type: in vivo, Lolium multiflorum; details: Lolium multiflorum, pre-emergence
In short: as §1

deadnettle = experiment: Test D postemergence; assay type: in vivo, Lamium amplexicaule; details: Lamium amplexicaule, post-emergence
In short: as §1

kochia = experiment: Test D preemergence; assay type: in vivo, Kochia scoparia; details: Bassia scoparia, pre-emergence
In short: as §1

blackgrass = experiment: Test D preemergence; assay type: in vivo, Alopecurus myosuroides; details: Alopecurus myosuroides, pre-emergence
In short: as §1

Italian ryegrass [3] = experiment: Test E postemergence; assay type: in vivo, Lolium multiflorum; details: Lolium multiflorum, post-emergence, read-out: Plant response rating, Ryegrass, Italian
In short: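 Compound in a non-phytotoxic solvent mixture with surfactant was applied preemergence to seeds in silt loam soil, or postemergence to plants 2 to 18 cm tall grown in peat-based potting medium. Plants were kept in a greenhouse for 14 to 21 days, then rated visually against untreated controls on a 0 (no effect) to 100 (complete control) scale.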

field violet = experiment: Test D preemergence; assay type: in vivo, Viola arvensis; details: Viola arvensis, pre-emergence
In short: as §1

galium = experiment: Test D postemergence; assay type: in vivo, Galium aparine; details: Galium, post-emergence
In short: as §1

bluegrass = experiment: Test D preemergence; assay type: in vivo, Poa annua; details: Poa annua, pre-emergence
In short: as §1

oilseed rape = experiment: Test D postemergence; assay type: in vivo, Brassica napus; details: Brassica napus, post-emergence
In short: as §1

wild buckwheat = experiment: Test D postemergence; assay type: in vivo, Polygonum convolvulus; details: Fallopia convolvulus, post-emergence, Postemergence, scale 0 to 100 (0 no effect, 100 complete control), read-out: Plant response rating, Buckwheat, Wild
In short: as §1

Clc1cnc(Oc2ccccc2-n2cc(Br)cn2)nc1 [Compound 7, 2-[2-(4-bromo-1H-pyrazol-1-yl)phenoxy]-5-chloropyrimidine]
80%: pest or weed control at 250 g/ha (field violet; 250 g ai/ha, scale 0-100, read-out: Plant response rating, Field Violet) | pest or weed control at 125 g/ha (galium; 125 g ai/ha, scale 0 to 100 (0 no effect, 100 complete control), read-out: Plant response rating, Galium) | plant injury at 31 g/ha (oilseed rape; 31 g ai/ha, scale 0 to 100 (0 no effect, 100 complete control), read-out: Plant response rating, Oilseed Rape)
100%: plant injury at 125 g/ha (oilseed rape; 125 g ai/ha, scale 0 to 100 (0 no effect, 100 complete control), read-out: Plant response rating, Oilseed Rape) | plant injury at 250 g/ha (oilseed rape; 250 g ai/ha, scale 0 to 100 (0 no effect, 100 complete control), read-out: Plant response rating, Oilseed Rape) | pest or weed control at 250 g/ha (wild buckwheat; 250 g ai/ha)
25%: pest or weed control at 250 g/ha (canarygrass; 250 g ai/ha, scale 0 to 100 (0 no effect, 100 complete control), read-out: Plant response rating, Canarygrass)
5%: pest or weed control at 62 g/ha (canarygrass; 62 g ai/ha, scale 0 to 100 (0 no effect, 100 complete control), read-out: Plant response rating, Canarygrass) | pest or weed control at 250 g/ha (Italian ryegrass [2]; 250 g ai/ha, scale 0-100, read-out: Plant response rating, Ryegrass, Italian)
15%: pest or weed control at 250 g/ha (blackgrass; 250 g ai/ha, scale 0-100, read-out: Plant response rating, Blackgrass)
85%: pest or weed control at 125 g/ha (wild buckwheat; 125 g ai/ha)
60%: pest or weed control at 62 g/ha (wild buckwheat; 62 g ai/ha)
20%: pest or weed control at 62 g/ha (deadnettle; 62 g ai/ha, scale 0 to 100 (0 no effect, 100 complete control), read-out: Plant response rating, Deadnettle) | pest or weed control at 62 g/ha (field violet; 62 g ai/ha, scale 0-100, read-out: Plant response rating, Field Violet) | pest or weed control at 16 g/ha (galium; 16 g ai/ha, scale 0-100, read-out: Plant response rating, Galium) | pest or weed control at 16 g/ha (wild buckwheat; 16 g ai/ha)
70%: pest or weed control at 250 g/ha (kochia; 250 g ai/ha, scale 0-100, read-out: Plant response rating, Kochia) | pest or weed control at 125 g/ha (field violet; 125 g ai/ha, scale 0-100, read-out: Plant response rating, Field Violet) | pest or weed control at 62 g/ha (galium; 62 g ai/ha, scale 0 to 100 (0 no effect, 100 complete control), read-out: Plant response rating, Galium)
95%: plant injury at 62 g/ha (oilseed rape; 62 g ai/ha, scale 0 to 100 (0 no effect, 100 complete control), read-out: Plant response rating, Oilseed Rape)
90%: pest or weed control at 250 g/ha (galium; 250 g ai/ha, scale 0 to 100 (0 no effect, 100 complete control), read-out: Plant response rating, Galium)
40%: pest or weed control at 250 g/ha (deadnettle; 250 g ai/ha, scale 0 to 100 (0 no effect, 100 complete control), read-out: Plant response rating, Deadnettle) | pest or weed control at 31 g/ha (galium; 31 g ai/ha, scale 0 to 100 (0 no effect, 100 complete control), read-out: Plant response rating, Galium) | pest or weed control at 250 g/ha (bluegrass; 250 g ai/ha, scale 0-100, read-out: Plant response rating, Bluegrass)
30%: pest or weed control at 125 g/ha (deadnettle; 125 g ai/ha, scale 0 to 100 (0 no effect, 100 complete control), read-out: Plant response rating, Deadnettle) | pest or weed control at 125 g/ha (bluegrass; 125 g ai/ha, scale 0-100, read-out: Plant response rating, Bluegrass) | pest or weed control at 31 g/ha (wild buckwheat; 31 g ai/ha)
75%: plant injury at 16 g/ha (oilseed rape; 16 g ai/ha, scale 0-100, read-out: Plant response rating, Oilseed Rape)
0%: pest or weed control at 16 g/ha (chamomile; 16 g ai/ha, scale 0-100, read-out: Plant response rating, Chamomile) | pest or weed control at 31 g/ha (chamomile; 31 g ai/ha, scale 0 to 100 (0 no effect, 100 complete control), read-out: Plant response rating, Chamomile) | pest or weed control at 62 g/ha (chamomile; 62 g ai/ha, scale 0 to 100 (0 no effect, 100 complete control), read-out: Plant response rating, Chamomile) | pest or weed control at 125 g/ha (chamomile; 125 g ai/ha, scale 0 to 100 (0 no effect, 100 complete control), read-out: Plant response rating, Chamomile) | pest or weed control at 250 g/ha (chamomile; 250 g ai/ha, scale 0 to 100 (0 no effect, 100 complete control), read-out: Plant response rating, Chamomile) | pest or weed control at 16 g/ha (Italian ryegrass [1]; 16 g ai/ha, scale 0-100, read-out: Plant response rating, Ryegrass, Italian) | pest or weed control at 31 g/ha (Italian ryegrass [1]; 31 g ai/ha, scale 0 to 100 (0 no effect, 100 complete control), read-out: Plant response rating, Ryegrass, Italian) | pest or weed control at 62 g/ha (Italian ryegrass [1]; 62 g ai/ha, scale 0 to 100 (0 no effect, 100 complete control), read-out: Plant response rating, Ryegrass, Italian) | pest or weed control at 125 g/ha (Italian ryegrass [1]; 125 g ai/ha, scale 0 to 100 (0 no effect, 100 complete control), read-out: Plant response rating, Ryegrass, Italian) | pest or weed control at 250 g/ha (Italian ryegrass [1]; 250 g ai/ha, scale 0 to 100 (0 no effect, 100 complete control), read-out: Plant response rating, Ryegrass, Italian) | pest or weed control at 16 g/ha (canarygrass; 16 g ai/ha, scale 0-100, read-out: Plant response rating, Canarygrass) | pest or weed control at 31 g/ha (canarygrass; 31 g ai/ha, scale 0 to 100 (0 no effect, 100 complete control), read-out: Plant response rating, Canarygrass) | pest or weed control at 16 g/ha (Italian ryegrass [2]; 16 g ai/ha, scale 0 (no effect) to 100 (complete control), read-out: Plant response rating, Ryegrass, Italian) | pest or weed control at 31 g/ha (Italian ryegrass [2]; 31 g ai/ha, scale 0 (no effect) to 100 (complete control), read-out: Plant response rating, Ryegrass, Italian) | pest or weed control at 62 g/ha (Italian ryegrass [2]; 62 g ai/ha, scale 0-100, read-out: Plant response rating, Ryegrass, Italian) | pest or weed control at 125 g/ha (Italian ryegrass [2]; 125 g ai/ha, scale 0-100, read-out: Plant response rating, Ryegrass, Italian) | pest or weed control at 16 g/ha (kochia; 16 g ai/ha, scale 0 (no effect) to 100 (complete control), read-out: Plant response rating, Kochia) | pest or weed control at 31 g/ha (kochia; 31 g ai/ha, scale 0-100, read-out: Plant response rating, Kochia) | pest or weed control at 62 g/ha (kochia; 62 g ai/ha, scale 0-100, read-out: Plant response rating, Kochia) | pest or weed control at 125 g/ha (kochia; 125 g ai/ha, scale 0-100, read-out: Plant response rating, Kochia) | pest or weed control at 16 g/ha (blackgrass; 16 g ai/ha, scale 0 (no effect) to 100 (complete control), read-out: Plant response rating, Blackgrass) | pest or weed control at 31 g/ha (blackgrass; 31 g ai/ha, scale 0-100, read-out: Plant response rating, Blackgrass) | pest or weed control at 62 g/ha (blackgrass; 62 g ai/ha, scale 0-100, read-out: Plant response rating, Blackgrass) | pest or weed control at 125 g/ha (blackgrass; 125 g ai/ha, scale 0-100, read-out: Plant response rating, Blackgrass) | pest or weed control at 31 g/ha (Italian ryegrass [3]; Postemergence, 31 g ai/ha, scale 0 to 100) | pest or weed control at 62 g/ha (Italian ryegrass [3]; Postemergence, 62 g ai/ha, scale 0 to 100) | pest or weed control at 125 g/ha (Italian ryegrass [3]; Postemergence, 125 g ai/ha, scale 0 to 100) | pest or weed control at 8 g/ha (Italian ryegrass [3]; postemergence, 8 g ai/ha, scale 0 to 100, 0 no effect, 100 complete control) | pest or weed control at 16 g/ha (Italian ryegrass [3]; postemergence, 16 g ai/ha, scale 0 to 100, 0 no effect, 100 complete control) | pest or weed control at 16 g/ha (field violet; 16 g ai/ha, scale 0 (no effect) to 100 (complete control), read-out: Plant response rating, Field Violet) | pest or weed control at 31 g/ha (field violet; 31 g ai/ha, scale 0-100, read-out: Plant response rating, Field Violet) | pest or weed control at 16 g/ha (bluegrass; 16 g ai/ha, scale 0 (no effect) to 100 (complete control), read-out: Plant response rating, Bluegrass) | pest or weed control at 31 g/ha (bluegrass; 31 g ai/ha, scale 0-100, read-out: Plant response rating, Bluegrass) | pest or weed control at 62 g/ha (bluegrass; 62 g ai/ha, scale 0-100, read-out: Plant response rating, Bluegrass)
10%: pest or weed control at 125 g/ha (canarygrass; 125 g ai/ha, scale 0 to 100 (0 no effect, 100 complete control), read-out: Plant response rating, Canarygrass) | pest or weed control at 16 g/ha (deadnettle; 16 g ai/ha, scale 0-100, read-out: Plant response rating, Deadnettle) | pest or weed control at 31 g/ha (deadnettle; 31 g ai/ha, scale 0 to 100 (0 no effect, 100 complete control), read-out: Plant response rating, Deadnettle)
